In patent US12653794B2, “Dextromethorphan transdermal delivery device” (SHINKEI THERAPEUTICS, INC., priority 2017, dated 2026):

Columns and labels:
[1] = Transdermal delivery rate without enhancer
Source text: The unpredictability of transdermal administration is notorious. […] Structurally and by calculated Log P, these compounds are very similar, such that this difference could not be anticipated. See, U.S. Provisional Appl. No. 62/568,028, filed Oct. 4, 2017, the content of which is incorporated by reference in its entirety.

[2] = human, in vivo; cited from earlier work
[3] = Transdermal flux test, Franz Diffusion Cell method; type: in vitro ADME, human
Method: Transdermal flux of Dextromethorphan from the patch was tested using human cadaver epidermis by Franz Diffusion Cell method.
Patch formulations A, B, and C prepared in Example 1 were used for a skin permeation study using the following protocol: • Franz cell assembly—Logan Instruments (6-cell unit) • Each cell has 12 mL volume, 1.5 cm diameter orifice • Receptor medium is a phosphate buffer solution (PBS) pH 7.4 • Cell temperature is maintained at 37° C. • Sampling method: take 1.5 mL for HPLC assay, empty cell, replace with fresh medium • Sampling time points: 4, 8, 12, 24 and 48 hours • Cadaver skin is used and is obtained from New York Fire Fighters Skin Bank. Skin No. MM07116, While, person, skin site: left posterior leg. • Assay method for media: HPLC based.
Formulations D0-D2 were also tested for their in vitro flux characteristics following the same protocol as described in Example 2.

SMILES: C[C@]12CC[C@H]3[C@@H](CCC4=CC(=O)CC[C@@]43C)[C@@H]1CC[C@@H]2O [testosterone]
- transdermal delivery rate relative to beta estradiol [1]: three orders of magnitude higher

SMILES: COc1ccc2c(c1)[C@]13CCCC[C@@H]1[C@H](C2)N(C)CC3 [dextromethorphan]
- adverse reactions reported with the individual component [2]: drowsiness, dizziness, nervousness or restlessness, nausea, vomiting, and stomach pain

SMILES: CCCCCCCCCCCCCC(=O)OC(C)C [IPM, isopropyl myristate]
- effect on flux of dextromethorphan [3]: significant enhancement of flux was observed
- effect on skin permeation of DXM [3]: significantly enhance the skin permeation of DXM
